Measured values reported in ChEMBL document CHEMBL1201862, “PubChem BioAssay data set” (2004).
Active and inactive are the calls of the source.

Legend:
[1] = biological target: T1, Heat shock factor protein 1 (Mus musculus, UniProt P38532); assay: enhancement of HSF1-driven luciferase signal – cell-based, NIH3T3, luminescence, dose retest, confirmation (AID 435004); format: functional;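 further: stress induced by proteasome inhibitor MG132 added 30 min after compound; luciferase reporter driven by HSF1 response element in NIH3T3 cells; actives raise luminescence as potentiators of the MG132 stress response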
T1 sequence (P38532 whole entry): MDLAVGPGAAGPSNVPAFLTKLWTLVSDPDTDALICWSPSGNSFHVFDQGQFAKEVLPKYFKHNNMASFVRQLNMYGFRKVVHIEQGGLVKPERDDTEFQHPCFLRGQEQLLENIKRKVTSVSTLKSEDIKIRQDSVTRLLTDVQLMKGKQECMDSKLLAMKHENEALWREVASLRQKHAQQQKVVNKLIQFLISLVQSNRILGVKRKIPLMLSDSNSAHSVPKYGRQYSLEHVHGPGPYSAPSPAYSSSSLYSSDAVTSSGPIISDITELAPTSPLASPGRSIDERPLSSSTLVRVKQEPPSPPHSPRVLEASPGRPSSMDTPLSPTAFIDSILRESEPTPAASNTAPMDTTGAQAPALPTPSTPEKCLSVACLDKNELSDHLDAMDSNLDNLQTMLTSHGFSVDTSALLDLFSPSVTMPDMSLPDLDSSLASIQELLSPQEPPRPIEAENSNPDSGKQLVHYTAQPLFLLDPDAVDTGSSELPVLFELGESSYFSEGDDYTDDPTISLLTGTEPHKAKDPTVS

[2] = tested on: Vero; assay: cells; format: functional, cell-based; conditions: Chlorocebus sabaeus
[3] = viability loss in HepG2 hepatoma cells – cell-based, ATP luminescence, cherry-pick, activator set 2, cytotoxicity control, dose response (AID 1053143); format: functional
[4] = tested on: Vero; assay: cells; format: functional; conditions: Chlorocebus sabaeus
[5] = biological target: Albumin (Bos taurus, UniProt P02769); assay: Counterscreen for inhibitors of T-cell receptor (TCR)-CD3 interaction: Fluorescence-based biochemical high throughput dose response assay to identify inhibitors of T-cell receptor (TCR)-CD3 interaction using a TAMRA-labeled BSA probe.; format: functional
Sequence of Albumin (P02769 whole entry): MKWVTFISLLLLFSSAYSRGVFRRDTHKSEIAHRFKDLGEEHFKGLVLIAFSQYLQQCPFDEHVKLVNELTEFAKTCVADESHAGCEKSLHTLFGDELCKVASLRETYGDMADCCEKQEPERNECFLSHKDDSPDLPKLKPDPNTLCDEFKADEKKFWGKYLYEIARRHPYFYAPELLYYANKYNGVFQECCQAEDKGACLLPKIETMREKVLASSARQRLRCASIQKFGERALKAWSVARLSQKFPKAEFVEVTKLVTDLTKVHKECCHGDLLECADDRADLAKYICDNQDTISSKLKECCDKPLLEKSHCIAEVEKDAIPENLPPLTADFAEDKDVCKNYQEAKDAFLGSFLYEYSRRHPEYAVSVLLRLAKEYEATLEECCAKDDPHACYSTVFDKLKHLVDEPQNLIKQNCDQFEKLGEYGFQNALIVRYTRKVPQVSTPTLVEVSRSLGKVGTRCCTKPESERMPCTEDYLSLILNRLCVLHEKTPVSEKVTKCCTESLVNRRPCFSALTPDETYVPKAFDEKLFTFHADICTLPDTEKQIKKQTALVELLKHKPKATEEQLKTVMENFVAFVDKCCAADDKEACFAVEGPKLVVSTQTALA

[6] = biological target: Long-chain-fatty-acid--AMP ligase FadD28 (Mycobacterium tuberculosis, UniProt P9WQ59); assay: Fluorescence polarization aasay to screen for inhibitors that compete for the binding of FadD28 to a bisubstrate Measured in Biochemical System Using Plate Reader - 2147-01_Inhibitor_Dose_CherryPick_Activity.; format: functional, Mycobacterium tuberculosis H37Rv
Sequence of Long-chain-fatty-acid--AMP ligase FadD28 (P9WQ59 whole entry): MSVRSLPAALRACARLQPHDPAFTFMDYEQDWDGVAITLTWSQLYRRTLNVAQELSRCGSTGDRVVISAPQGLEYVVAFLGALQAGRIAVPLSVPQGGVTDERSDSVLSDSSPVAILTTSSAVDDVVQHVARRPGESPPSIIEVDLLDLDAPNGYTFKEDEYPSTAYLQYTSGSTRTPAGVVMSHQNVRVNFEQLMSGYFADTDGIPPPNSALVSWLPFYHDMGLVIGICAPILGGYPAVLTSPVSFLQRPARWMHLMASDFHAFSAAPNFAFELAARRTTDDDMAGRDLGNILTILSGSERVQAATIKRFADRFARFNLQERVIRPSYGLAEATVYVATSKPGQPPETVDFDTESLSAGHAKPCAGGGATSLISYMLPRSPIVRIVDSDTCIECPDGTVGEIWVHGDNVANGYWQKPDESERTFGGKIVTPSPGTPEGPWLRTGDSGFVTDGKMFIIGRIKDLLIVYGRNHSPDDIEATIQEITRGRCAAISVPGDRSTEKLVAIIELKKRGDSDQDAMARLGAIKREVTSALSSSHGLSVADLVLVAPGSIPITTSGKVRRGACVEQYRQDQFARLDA

[7] = biological target: Fructose-bisphosphate aldolase (Mycobacterium tuberculosis, UniProt P9WQA3); assay: Fluorescence-based biochemical high throughput dose response assay for inhibitors of the fructose-bisphosphate aldolase (FBA) of M. tuberculosis.; format: functional
Sequence of Fructose-bisphosphate aldolase (P9WQA3 whole entry): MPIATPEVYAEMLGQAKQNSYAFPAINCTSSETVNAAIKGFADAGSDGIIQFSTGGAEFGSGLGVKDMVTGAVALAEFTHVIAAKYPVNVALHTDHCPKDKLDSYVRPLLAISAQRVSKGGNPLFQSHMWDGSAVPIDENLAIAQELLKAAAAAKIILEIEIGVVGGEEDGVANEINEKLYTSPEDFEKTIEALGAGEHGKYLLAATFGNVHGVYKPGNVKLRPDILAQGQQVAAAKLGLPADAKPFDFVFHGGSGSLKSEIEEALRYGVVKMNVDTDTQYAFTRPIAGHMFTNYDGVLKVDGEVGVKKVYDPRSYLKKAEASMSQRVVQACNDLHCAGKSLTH

[8] = HGIII-sPLA2 enzyme inhibition potency – biochemical, QFRET, IC50, dose response (AID 743457);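 further: green fluorescence rise as the enzyme cleaves BODIPY PC-A2 in liposomes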
[9] = biological target: T2, Sentrin-specific protease 8 (Homo sapiens, UniProt Q96LD8); format: functional
T2 sequence (Q96LD8 whole entry): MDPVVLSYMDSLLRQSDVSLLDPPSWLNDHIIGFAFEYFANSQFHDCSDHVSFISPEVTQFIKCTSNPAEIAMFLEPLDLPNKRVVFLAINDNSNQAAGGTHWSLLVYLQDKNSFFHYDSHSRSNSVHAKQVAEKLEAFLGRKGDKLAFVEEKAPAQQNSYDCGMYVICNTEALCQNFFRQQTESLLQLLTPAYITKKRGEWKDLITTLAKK

[10] = biological target: T2, Sentrin-specific protease 8; format: functional; remark: listed apart in the source
[11] = biological target: T3, Caspase-3 (Homo sapiens, UniProt P42574); assay: Dose-response confirmation of uHTS inhibitor hits of Sentrin-Specific Protease 8 in a Caspase-3 Fluorescence assay.; format: functional
T3 sequence (P42574 whole entry): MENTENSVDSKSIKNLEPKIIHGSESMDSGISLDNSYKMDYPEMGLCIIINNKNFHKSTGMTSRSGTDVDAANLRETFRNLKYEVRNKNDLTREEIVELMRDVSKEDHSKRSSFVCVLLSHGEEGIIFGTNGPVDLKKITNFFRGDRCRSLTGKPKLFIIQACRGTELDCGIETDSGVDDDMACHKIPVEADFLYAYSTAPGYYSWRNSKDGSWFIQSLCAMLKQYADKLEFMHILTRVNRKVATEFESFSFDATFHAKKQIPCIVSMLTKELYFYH

[12] = HepG2 cell cytotoxicity, dose response, cytotoxicity control for non-replicating M. tuberculosis project (AID 489018); format: functional; conditions: Mycobacterium tuberculosis
[13] = blockers of HIV-1 ZM109 envelope-driven cell-cell fusion – HeLa effector, CEM target cells, luciferase, cherry-pick, dose response (AID 652058); format: functional, cell-based;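 further: luciferase signal from HIV-1 Env mediated cell-cell fusion of effector and target cells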
[14] = Vero E6 cell cytotoxicity, dose response, cytotoxicity control for non-replicating M. tuberculosis project, secondary assay (AID 492998); format: functional, VeroE6; conditions: Vero C1008
[15] = HIV-1 AD8 envelope cell-cell fusion blockers – cherry-pick, dose response (AID 652062); format: functional, cell-based;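 further: luciferase signal from cell-cell fusion driven by HIV-1 clade B AD8 Env; potency is for inhibitors of fusion seen as a drop in luminescence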
[16] = off-target signal loss in HeLa-CEM21 co-culture – HeLa F-luc CTL cells, cherry-picked, counter-screen for HIV-1 Env fusion inhibitor project, dose response (AID 652040); format: functional, cell-based;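 further: potency for signal decrease marking cytotoxic or nonspecific inhibition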
[17] = blockers of HIV-1 envelope-mediated cell-cell fusion – cherry-pick, dose response (AID 652057); format: functional, cell-based
[18] = THP-1 cell cytotoxicity, dose response, cytotoxicity control for non-replicating M. tuberculosis project (AID 489025); format: functional
[19] = biological target: T4, Protein skinhead-1 (Caenorhabditis elegans, UniProt P34707); format: functional
T4 sequence (P34707 whole entry): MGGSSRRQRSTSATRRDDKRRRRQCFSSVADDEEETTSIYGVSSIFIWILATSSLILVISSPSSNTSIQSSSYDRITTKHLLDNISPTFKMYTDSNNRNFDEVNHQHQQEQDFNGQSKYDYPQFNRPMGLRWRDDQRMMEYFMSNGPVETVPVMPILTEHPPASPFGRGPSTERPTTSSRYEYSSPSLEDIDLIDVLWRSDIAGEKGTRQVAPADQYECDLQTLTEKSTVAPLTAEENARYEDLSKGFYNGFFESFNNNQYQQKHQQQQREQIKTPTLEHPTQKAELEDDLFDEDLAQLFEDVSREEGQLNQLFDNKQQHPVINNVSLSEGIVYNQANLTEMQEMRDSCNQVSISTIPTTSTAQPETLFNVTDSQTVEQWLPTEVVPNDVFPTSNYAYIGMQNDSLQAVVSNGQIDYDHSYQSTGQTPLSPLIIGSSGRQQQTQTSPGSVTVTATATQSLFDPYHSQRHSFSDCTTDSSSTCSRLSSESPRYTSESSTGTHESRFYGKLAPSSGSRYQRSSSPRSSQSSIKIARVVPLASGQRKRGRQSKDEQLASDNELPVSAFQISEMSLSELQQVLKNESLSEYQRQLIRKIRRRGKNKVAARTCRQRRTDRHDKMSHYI

[20] = biological target: T5, Histone-lysine N-methyltransferase NSD2 (Homo sapiens, UniProt O96028); format: biochemical
T5 sequence (O96028 whole entry): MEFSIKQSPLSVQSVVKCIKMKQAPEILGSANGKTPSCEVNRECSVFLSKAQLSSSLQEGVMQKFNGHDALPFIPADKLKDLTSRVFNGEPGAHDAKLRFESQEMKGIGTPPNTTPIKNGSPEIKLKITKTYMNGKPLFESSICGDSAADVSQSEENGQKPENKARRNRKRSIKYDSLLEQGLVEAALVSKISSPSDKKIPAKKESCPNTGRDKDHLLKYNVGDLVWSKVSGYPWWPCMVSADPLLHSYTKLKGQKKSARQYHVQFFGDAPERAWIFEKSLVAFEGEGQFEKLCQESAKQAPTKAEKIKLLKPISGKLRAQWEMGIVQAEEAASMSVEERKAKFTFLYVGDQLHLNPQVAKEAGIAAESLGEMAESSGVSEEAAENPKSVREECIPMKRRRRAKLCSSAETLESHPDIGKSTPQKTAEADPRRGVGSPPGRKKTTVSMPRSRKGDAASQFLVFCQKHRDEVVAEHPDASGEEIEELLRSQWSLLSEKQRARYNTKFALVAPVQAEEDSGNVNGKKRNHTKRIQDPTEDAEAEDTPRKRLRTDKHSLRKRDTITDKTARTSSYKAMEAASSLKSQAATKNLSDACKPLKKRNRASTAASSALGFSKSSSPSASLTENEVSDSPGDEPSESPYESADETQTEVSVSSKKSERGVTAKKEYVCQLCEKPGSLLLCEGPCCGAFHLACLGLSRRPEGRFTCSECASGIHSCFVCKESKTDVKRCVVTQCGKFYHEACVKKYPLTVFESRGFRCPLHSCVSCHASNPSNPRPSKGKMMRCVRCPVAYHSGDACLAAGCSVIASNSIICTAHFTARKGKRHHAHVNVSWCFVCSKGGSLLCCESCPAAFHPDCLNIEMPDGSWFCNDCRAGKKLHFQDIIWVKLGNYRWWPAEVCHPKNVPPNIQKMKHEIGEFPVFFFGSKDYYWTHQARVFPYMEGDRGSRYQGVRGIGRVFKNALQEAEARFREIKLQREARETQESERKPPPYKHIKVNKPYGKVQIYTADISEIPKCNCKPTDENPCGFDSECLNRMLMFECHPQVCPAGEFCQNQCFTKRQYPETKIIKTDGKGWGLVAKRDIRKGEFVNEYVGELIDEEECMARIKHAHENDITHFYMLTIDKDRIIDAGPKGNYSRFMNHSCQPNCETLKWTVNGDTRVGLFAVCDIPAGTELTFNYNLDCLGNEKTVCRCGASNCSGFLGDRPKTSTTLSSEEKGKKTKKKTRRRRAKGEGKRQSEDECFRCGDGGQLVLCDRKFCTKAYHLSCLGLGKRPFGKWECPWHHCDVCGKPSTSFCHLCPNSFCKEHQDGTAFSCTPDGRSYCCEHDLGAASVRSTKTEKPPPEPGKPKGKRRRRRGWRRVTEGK

[21] = biological target: DNA repair protein RAD52 homolog (Homo sapiens, UniProt P43351); format: functional, biochemical
Sequence of DNA repair protein RAD52 homolog (P43351 whole entry): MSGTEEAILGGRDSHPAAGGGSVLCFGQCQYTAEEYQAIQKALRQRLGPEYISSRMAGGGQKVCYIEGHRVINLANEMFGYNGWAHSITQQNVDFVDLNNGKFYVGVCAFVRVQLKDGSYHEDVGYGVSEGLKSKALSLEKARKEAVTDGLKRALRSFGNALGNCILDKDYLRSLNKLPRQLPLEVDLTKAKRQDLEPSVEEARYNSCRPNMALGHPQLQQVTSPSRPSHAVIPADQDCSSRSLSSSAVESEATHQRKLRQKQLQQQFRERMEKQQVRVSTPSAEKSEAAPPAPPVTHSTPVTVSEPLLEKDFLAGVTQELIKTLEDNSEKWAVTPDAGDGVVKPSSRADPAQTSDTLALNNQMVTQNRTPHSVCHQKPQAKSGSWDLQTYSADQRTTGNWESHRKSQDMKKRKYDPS

[22] = biological target: T6, SUMO-activating enzyme (Homo sapiens, UniProt Q9UBT2); assay: blockers of UBC9-mediated SUMO conjugation – biochemical, AlphaScreen, SUMOylation inhibitor project, confirmation (AID 2018); format: functional
T6 sequence (Q9UBE0 whole entry): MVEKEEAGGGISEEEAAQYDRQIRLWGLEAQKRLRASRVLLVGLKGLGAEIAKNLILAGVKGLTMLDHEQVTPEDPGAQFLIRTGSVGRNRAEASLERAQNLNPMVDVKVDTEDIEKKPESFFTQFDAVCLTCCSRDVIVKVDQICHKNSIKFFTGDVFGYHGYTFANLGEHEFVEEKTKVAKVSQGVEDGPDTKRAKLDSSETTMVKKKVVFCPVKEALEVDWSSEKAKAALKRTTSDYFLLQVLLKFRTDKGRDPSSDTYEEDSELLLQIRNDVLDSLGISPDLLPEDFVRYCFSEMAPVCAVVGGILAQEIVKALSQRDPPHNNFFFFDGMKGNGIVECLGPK
T6 sequence (Q9UBT2 whole entry): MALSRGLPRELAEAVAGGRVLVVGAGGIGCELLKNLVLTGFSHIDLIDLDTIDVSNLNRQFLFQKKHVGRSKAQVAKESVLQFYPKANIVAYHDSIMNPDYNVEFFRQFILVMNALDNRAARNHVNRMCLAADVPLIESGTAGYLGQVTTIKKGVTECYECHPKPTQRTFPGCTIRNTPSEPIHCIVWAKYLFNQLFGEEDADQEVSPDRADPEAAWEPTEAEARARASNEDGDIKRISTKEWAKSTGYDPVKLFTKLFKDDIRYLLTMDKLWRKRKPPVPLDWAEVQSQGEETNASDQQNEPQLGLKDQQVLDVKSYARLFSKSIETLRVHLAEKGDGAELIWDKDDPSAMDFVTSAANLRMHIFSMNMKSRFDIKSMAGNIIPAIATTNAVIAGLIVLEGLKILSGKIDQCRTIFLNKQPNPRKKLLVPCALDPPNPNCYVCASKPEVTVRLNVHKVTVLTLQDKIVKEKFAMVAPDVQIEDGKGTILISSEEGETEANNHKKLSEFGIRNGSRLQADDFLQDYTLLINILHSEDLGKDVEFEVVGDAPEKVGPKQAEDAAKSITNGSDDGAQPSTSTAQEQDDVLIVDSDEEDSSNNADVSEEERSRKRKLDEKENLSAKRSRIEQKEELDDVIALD

[23] = biological target: Genome polyprotein (dengue virus type 2, UniProt P29990); assay: flavivirus cap methylation enzyme inhibition – biochemical, confirmation dose response, primary screen (AID 588689); format: functional
Sequence of Genome polyprotein (P29990 2492-3391 limits assumed): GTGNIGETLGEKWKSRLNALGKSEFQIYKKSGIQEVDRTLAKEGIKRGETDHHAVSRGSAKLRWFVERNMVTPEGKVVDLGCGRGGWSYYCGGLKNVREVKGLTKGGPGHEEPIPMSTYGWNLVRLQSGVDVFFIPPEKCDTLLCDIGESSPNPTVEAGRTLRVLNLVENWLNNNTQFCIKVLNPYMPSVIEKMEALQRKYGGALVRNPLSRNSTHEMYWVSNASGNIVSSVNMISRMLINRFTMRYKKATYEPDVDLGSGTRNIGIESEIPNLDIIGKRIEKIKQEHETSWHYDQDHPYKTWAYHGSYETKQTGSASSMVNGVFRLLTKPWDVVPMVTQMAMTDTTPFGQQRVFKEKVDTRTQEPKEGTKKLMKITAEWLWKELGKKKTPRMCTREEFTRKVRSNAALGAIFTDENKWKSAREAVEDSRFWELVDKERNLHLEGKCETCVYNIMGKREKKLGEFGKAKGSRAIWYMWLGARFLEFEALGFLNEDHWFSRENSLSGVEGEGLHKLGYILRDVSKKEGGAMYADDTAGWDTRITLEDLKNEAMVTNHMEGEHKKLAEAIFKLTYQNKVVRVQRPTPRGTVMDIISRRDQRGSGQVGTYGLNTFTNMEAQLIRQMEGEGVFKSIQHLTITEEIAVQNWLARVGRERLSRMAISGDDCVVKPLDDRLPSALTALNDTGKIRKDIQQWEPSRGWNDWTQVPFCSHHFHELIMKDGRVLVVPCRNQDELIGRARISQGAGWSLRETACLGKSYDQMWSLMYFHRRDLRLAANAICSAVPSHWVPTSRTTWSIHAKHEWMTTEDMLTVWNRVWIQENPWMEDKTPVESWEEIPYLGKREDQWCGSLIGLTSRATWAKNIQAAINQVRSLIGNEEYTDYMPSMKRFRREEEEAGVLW

[24] = biological target: T6, SUMO-activating enzyme; assay: blockers of SAE1/SAE2–UBC9 SUMO transfer – biochemical, HTRF, uHTS, primary screen (AID 2006); format: protein-complex assay
[25] = cells; format: functional, cell-based
[26] = biological target: T7, Trace amine-associated receptor 1 (Homo sapiens, UniProt Q96RJ0); assay: Counterscreen for agonists of the human trace amine associated receptor 1 (hTAAR1): Fluorescence-based cell-based high throughput dose response assay to identify hTAAR1 agonist that also desensitize TAAR1 receptor response.; format: functional
T7 sequence (Q96RJ0 whole entry): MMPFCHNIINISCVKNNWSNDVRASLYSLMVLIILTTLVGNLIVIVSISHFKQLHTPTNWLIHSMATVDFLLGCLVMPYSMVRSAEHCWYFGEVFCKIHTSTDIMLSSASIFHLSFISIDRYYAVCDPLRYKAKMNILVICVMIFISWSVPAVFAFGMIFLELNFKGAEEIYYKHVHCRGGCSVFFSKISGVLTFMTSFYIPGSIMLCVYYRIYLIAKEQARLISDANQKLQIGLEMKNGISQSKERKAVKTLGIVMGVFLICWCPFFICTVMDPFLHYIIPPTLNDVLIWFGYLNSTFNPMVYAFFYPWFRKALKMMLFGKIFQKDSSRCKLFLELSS

[27] = biological target: T7, Trace amine-associated receptor 1; assay: Fluorescence-based cell-based high throughput dose response assay to identify agonists of the human trace amine associated receptor 1 (TAAR1).; format: functional
[28] = cells; format: functional, cell-based; remark: listed apart in the source

O=C(Nc1ccc(Cl)cn1)c1ccc([N+](=O)[O-])o1
EC50 [1]: 20.8 µM (active)
IC50 [2]: > 25 µM (active)
AC50 [3]: 26 µM (active)
CC50 [4]: 16.9 µM (active)

CCOc1ccc(C(=O)CCC(=O)NNC(=O)c2ccccc2O)cc1
IC50 [5]: > 94.1 µM (inactive)

COc1ccc(C(=O)NCCc2c[nH]c3ccccc23)cc1S(=O)(=O)N1CCOCC1
AC50 [6]: 82.7 µM (active)

COc1ccc(Nc2ccnc(Nc3ccc(OC)cc3)n2)cc1
AC50 [3]: 26 µM (active)

CCc1c(C)nc2c(-c3ccccc3)cnn2c1O
IC50 [7]: 3.39 µM (active)
IC50 [8]: > 122 µM (inactive)

COc1ccc2cc3cc(C(=O)N4CCN(C5CCCCC5)CC4)oc3nc2c1
IC50 [7]: 0.92 µM (active)

COc1ccc(N2C(=O)[C@@H]3[C@H](C2=O)[C@H]2c4ccccc4C=CN2[C@@H]3C(C)=O)cc1
IC50 [9]: 0.543 µM (active)
IC50 [10]: 1.19 µM (active)
IC50 [11]: 3.03 µM (active)

CC1=NN(C(=O)c2ccccc2)C(O)(c2ccc(Br)cc2)C1 (centres undefined)
CC50 [12]: > 20 µM (active)
AC50 [13]: 8 µM (active)
CC50 [14]: > 20 µM (active)
IC50 [5]: > 94.2 µM (inactive)
AC50 [15]: 42.2 µM (active)
AC50 [16]: 21.6 µM (active)
AC50 [17]: 9.38 µM (active)
CC50 [18]: 22.8 µM (active)

Cc1c(C)n(Cc2ccccc2)c2ccc(C(=O)OCCN(C)C)cc12
IC50 [19]: 58.2 µM (inactive)
AC50 [20]: > 20 µM (inactive)
AC50 [21]: 14 µM (active)

CCC(C)(C)C1CCc2c(sc(NC(=O)c3ccccc3C(=O)O)c2C#N)C1 (centres undefined)
AC50 [6]: 37.3 µM (active)
IC50 [22]: 15.3 µM (active)
IC50 [23]: 42.6 µM (active)
IC50 [24]: 21.4 µM (active)

CC(C)[C@H](NC(=O)C1CC1)C(=O)N1CCC[C@H]1C(=O)NCCc1ccccc1Cl
IC50 [25]: > 29.9 µM (inactive)
IC50 [26]: 3.18 µM (active)
EC50 [27]: 3.03 µM (active)
EC50 [28]: > 29.9 µM (inactive)

Cc1cc(C(=O)CN2C(=O)C(=O)N(C3CCCC3)C2=O)c(C)n1CCc1ccc(F)cc1
IC50 [25]: > 29.9 µM (inactive)
IC50 [26]: 5.57 µM (active)
EC50 [27]: 2.96 µM (active)
EC50 [28]: > 29.9 µM (inactive)

O=C(Cc1ccccc1)c1nc2ccccc2s1
IC50 [9]: 6.06 µM (active)
IC50 [10]: 26.7 µM (active)
IC50 [11]: 25 µM (active)
